Test results: patent US20240216372A1, “THERAPEUTICS FOR KELOIDS AND OTHER FIBROTIC DISORDERS” (Florida State University Research Foundation, Inc., priority 2022, published 2024)

Tests used:
[1] = system: keloid dermal fibroblasts; assay: keloid fibroblast proliferation; type: cell-based, human; details: for effect on keloid fibroblast proliferation / sensitivity of keloid dermal fibroblasts to the drug (effective concentration range): patient-derived keloid dermal fibroblasts; for sensitivity of keloid fibroblasts compared to normal HDFs: keloid fibroblasts versus normal HDFs
[2] = system: Insulin-like Growth Factor 2 (IGF2) signaling; details: general statement, no test described; cited from earlier work
[3] = system: normal primary human dermal fibroblasts (HDFs); assay: normal HDF proliferation; type: cell-based

Row | Structure (SMILES) | effect on keloid fibroblast proliferation [1] | sensitivity of keloid dermal fibroblasts to the drug (effective concentration range) [1] | effective range as inhibitor of IGF2 signaling [2] | sensitivity of keloid fibroblasts compared to normal HDFs [1] | sensitivity / proliferation of normal HDFs [3]
1 | CN(C)c1ccc2c(c1)OC(N)=C(C#N)C2c1cccc(C(F)(F)F)c1 (stereo not drawn) [Chromeceptin] | blocks keloid fibroblast proliferation | sensitive | low nanomolar range | – | –
2 | CNC(=O)Nc1ccc2c(c1)CC[C@@]21OC(=O)N(CC(=O)N(Cc2ccc(F)cc2)[C@@H](C)C(F)(F)F)C1=O [A485] | – | – | – | much more sensitive | –
3 | COc1cc(/C=C/C(=O)CC(=O)/C=C/c2ccc(O)c(OC)c2)ccc1O [Curcumin] | – | – | – | much more sensitive | –
4 | COc1ccc(CCN(C)CCCC(C#N)(c2ccc(OC)c(OC)c2)C(C)C)cc1OC (stereo not drawn) [Verapamil] | inhibits the proliferation of keloid fibroblasts | – | – | – | –
5 | O=C(O)C(=O)c1cn(Cc2ccccc2)c2ccc(-c3ccc(OC(F)(F)F)cc3)cc12 [Tiplaxtinin] | – | low micromolar range | – | preferentially blocks keloid fibroblast proliferation over normal HDF proliferation | not significantly sensitive
